Assay results reported in the supplement of paper PMC5412046.
Counter-ions that a name gives are not always drawn.

Each molecule was assayed on SB.mhdgc-1 (assay: AC50 for growth inhibition (viability) (log10 M); higher = less potent). Settings: SB.mhdgc-1 (hereditary c.1380delA CDH1 gastric cancer).
Summary of the method: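 Gastric cancer cells from hereditary or sporadic patients, 500 per 1536 well, were exposed to compound for 48 h over 11 threefold dilutions from a final 46 μM. CellTiter-Glo luminescence, read on a ViewLux, measured viability, which was normalised to DMSO. The log half-maximal activity concentration came from four-parameter fits, and only high-quality curve classes were kept.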

Compared with `COc1cccc2c1C(=O)c1c(O)c3c(c(O)c1C2=O)C[C@@](O)(C(=O)CO)C[C@@H]3O[C@H]1C[C@H](N)[C@H](O[C@H]2CCCCO2)[C@H](C)O1` [Pirarubicin], `COc1cccc2c1C(=O)c1c(O)c3c(c(O)c1C2=O)C[C@@](O)(C(=O)CO)C[C@@H]3O[C@H]1C[C@H](N)[C@@H](O)[C@H](C)O1` [Epirubicin hydrochloride] is lower in “AC50 for growth inhibition (log10 M)” value: -6.08 for the first, -6.93 for the second.

First: OCCNC1CCCc2c1[nH]c1ccc(-c3ccccc3)cc21 (stereo unspecified) [CASIN]
Second: c1ccc(-c2oc3ncnc(NC[C@@H]4CCCO4)c3c2-c2ccccc2)cc1 [AIM-100]
The “AC50 for growth inhibition (log10 M)” value of the first is higher: -4.73 for the first, -5.08 for the second.

Going from `Cc1c(C(=O)c2cccc3ccccc23)c2cccc3c2n1[C@H](CN1CCOCC1)CO3` to `CNC(=O)c1cccc(-c2ccc3c(N4CCOC[C@@H]4C)nc(N4CCOC[C@@H]4C)nc3n2)c1` [AZD-2014], the “AC50 for growth inhibition (log10 M)” value falls from -4.93 to -7.33.

First: COC1=CC=C(C(=C1)OC(C)C)C/2=N/[C@@H]([C@@H](N2C(=O)N3CCNC(=O)C3)C4=CC=C(Cl)C=C4)C5=CC=C(Cl)C=C5 [Nutlin-3]
Second: NC1=C(Cl)C(=CC=N1)OC2=C(F)C=C(NC(=O)\C3=C\N\C=C(C3=O)\C4=CC=C(F)C=C4)C=C2
The “AC50 for growth inhibition (log10 M)” value of the first is higher: -5.93 for the first, -6.43 for the second.

Compared with `CN[C@@H]1[C@H](O)[C@H](NC)[C@H]2O[C@@]3(O)C(=O)C[C@@H](C)O[C@H]3O[C@@H]2[C@H]1O` [Spectinomycin hydrochloride], `CN1[C@@H]2CC(O)C[C@H]1[C@@H]1O[C@@H]12` (stereo partly specified) [Scopine] is higher in “AC50 for growth inhibition (log10 M)” value: -5.93 for the first, -4.78 for the second.

Compared with `N#C[C@H](O[C@@H]1O[C@H](CO[C@@H]2O[C@H](CO)[C@@H](O)[C@H](O)[C@H]2O)[C@@H](O)[C@H](O)[C@H]1O)c1ccccc1` [Amygdalin], `COC1=CC=C(C=C1O)C/2=C/C(=O)C3=C(O2)C=C(O[C@@H]4O[C@H](CO[C@@H]5O[C@@H](C)[C@H](O)[C@@H](O)[C@H]5O)[C@@H](O)[C@H](O)[C@H]4O)C=C3O` [Diosmin] is lower in “AC50 for growth inhibition (log10 M)” value: -4.73 for the first, -5.03 for the second.

First: Cc1n[nH]c2ccc(-c3cncc(OC[C@@H](N)Cc4ccccc4)c3)cc12
Second: Nc1n[nH]c2nnc(-c3c(-c4ccccc4)nn4ccccc34)cc12
The “AC50 for growth inhibition (log10 M)” value of the first is lower: -6.43 for the first, -5.03 for the second.

`C=CC(=O)N1CCC[C@@H](n2nc(-c3ccc(Oc4ccccc4)cc3)c3c(N)ncnc32)C1` and `CCC(=O)N[C@H]1CC[C@H](C(=O)N(C)c2ccc(-c3nc4ccccc4o3)cc2)C1` [FASN BI] are within 0.2 log units of each other in “AC50 for growth inhibition (log10 M)” value: -5.98 for the first, -5.93 for the second.

Going from `Cc1coc2c1C(=O)C(=O)c1c-2ccc2c1CCCC2(C)C` [Tanshinone IIA] to `CNC(=O)c1ccc(N2C(=S)N(c3cnc(C#N)c(C(F)(F)F)c3)C(=O)C23CCC3)cc1F` [ARN-509], the “AC50 for growth inhibition (log10 M)” value falls from -5.58 to -6.53.

First: CCOC(=O)C(C#N)C\1C2=CC(=CC=C2O\C(=C1C(=O)OCC)N)Br (stereo unspecified) [HA-14-1]
Second: CN(Cc1cnc2nc(N)nc(N)c2n1)c1ccc(C(=O)N[C@@H](CCC(=O)O)C(=O)O)cc1 [Methotrexate]
The “AC50 for growth inhibition (log10 M)” value of the first is higher: -4.68 for the first, -6.68 for the second.

Going from `O=C(CCc1ccc(O)cc1)c1c(O)cc(O)cc1O` [Phloretin] to `CC(C)n1cnc2c(NCCc3ccc(O)cc3)nc(-c3csc4ccccc34)nc21` [StemRegenin 1], the “AC50 for growth inhibition (log10 M)” value rises from -7.33 to -5.78.

Compared with `N#C/N=C(\NCCCCCCOc1ccc(Cl)cc1)Nc1ccncc1` [GMX-1778], `c1ccc2c(CCNc3ccc(Nc4ccncc4)cc3)c[nH]c2c1` [Serdemetan] is higher in “AC50 for growth inhibition (log10 M)” value: -8.08 for the first, -5.63 for the second.

Going from `CNc1nccc(-c2cccnc2Oc2cc(C(=O)Nc3cccc(C(F)(F)F)c3)ccc2C)n1` [AMG-Tie2-1] to `NC1=NC=C(C=C1)C2=CC=C3N=CC\4=C(N(C(=O)\C=C4)C5=CC(=CC=C5)C(F)(F)F)C3=C2` [Torin-2], the “AC50 for growth inhibition (log10 M)” value falls from -4.83 to -6.48.

`CNC1CCC(N(Cc2cccc(-c3ccncc3)c2)C(=O)c2sc3ccccc3c2Cl)CC1` (stereo unspecified) [SAG] and `O=C(O)Cc1cccc(OCCCN(Cc2cccc(C(F)(F)F)c2Cl)CC(c2ccccc2)c2ccccc2)c1` [GSK-3965] are within 0.2 log units of each other in “AC50 for growth inhibition (log10 M)” value: -4.93 for the first, -4.78 for the second.

Going from `CC(C)C[C@H](NC(=O)[C@H](Cc1ccccc1)NC(=O)c1cnccn1)B(O)O` [Bortezomib] to `CC(C)C[C@H](NC(=O)c1cc2ccccc2s1)C(=O)N1CCN(C(=O)[C@H](CO)N[S+](=O)([O-])c2ccc(Cl)cc2Cl)CC1`, the “AC50 for growth inhibition (log10 M)” value rises from -7.78 to -4.73.

`CC(C)Nc1cc(C(F)(F)F)cc2nc(NC(=O)c3cccnc3)nn12` [S-99] and `COC1=CC=C2/C3=N/CCN3\C(=N/C2=C1OC)NC(=O)C4=CC=CN=C4` [PIK-90] are within 0.2 log units of each other in “AC50 for growth inhibition (log10 M)” value: -5.28 for the first, -5.33 for the second.

Going from `CC1(C)CC(=O)c2c(C(F)(F)F)nn(-c3ccc(C(N)=O)c(NC4CCC(OC(=O)CN)CC4)c3)c2C1` (stereo unspecified) [SNX-5422] to `COc1ccc(F)c(F)c1C(=O)c1cnc(NC2CCN([S+](C)(=O)[O-])CC2)nc1N` [R-547], the “AC50 for growth inhibition (log10 M)” value rises from -6.58 to -5.73.

`Cn1c2ccccc2c2c3c(c4c5ccccc5n(CCC#N)c4c21)CNC3=O` [G?-6976] and `CC(=O)N(C)C1(c2ccccc2)CCN(CCC[C@]2(c3ccc(Cl)c(Cl)c3)CCCN(C(=O)c3ccccc3)C2)CC1` [Osanetant] are within 0.2 log units of each other in “AC50 for growth inhibition (log10 M)” value: -5.08 for the first, -4.98 for the second.

Going from `C#CCC(Cc1cnc2nc(N)nc(N)c2n1)c1ccc(C(=O)N[C@@H](CCC(=O)O)C(=O)O)cc1` (stereo partly specified) [Pralatrexate] to `Nc1nc(F)nc2c1ncn2[C@@H]1O[C@H](COP(=O)(O)O)[C@@H](O)[C@@H]1O` [Fludarabine phosphate], the “AC50 for growth inhibition (log10 M)” value rises from -6.58 to -5.13.

`CN(c1ncccc1CNc1nc(Nc2ccc3c(c2)CC(=O)N3)ncc1C(F)(F)F)[S+](C)(=O)[O-]` and `COC1=C(OCCCN2CCOCC2)C=C3N=CC=C(OC4=CC=C(C=C4F)\C5=C\N=C(\NC6=CC=C(F)C=C6)N(C)C5=O)C3=C1` [AMG-51] are within 0.2 log units of each other in “AC50 for growth inhibition (log10 M)” value: -5.18 for the first, -5.03 for the second.

First: Nc1ncnc2c1nc(Cl)n2[C@@H]1O[C@H](CO)[C@@H](O)[C@H]1O [8-Cl-Ado]
Second: COc1c(C)cnc(Cn2cnc3c(Cl)nc(N)nc32)c1C [CNF-2024]
The “AC50 for growth inhibition (log10 M)” value of the first is higher: -4.78 for the first, -6.33 for the second.

Going from `CC(C)(O)/C=C\C(=O)[C@](C)(O)[C@H]1[C@H](O)C[C@]2(C)[C@@H]3CC=C4[C@@H](C=C(O)C(=O)C4(C)C)[C@]3(C)C(=O)C[C@@]12C` [Cucurbitacin I] to `CC1(C)O[C@@H]2C[C@H]3[C@@H]4C[C@H](F)C5=CC(=O)C=C[C@]5(C)[C@@]4(F)[C@@H](O)C[C@]3(C)[C@]2(C(=O)CO)O1` [Fluocinolone acetonide], the “AC50 for growth inhibition (log10 M)” value rises from -7.43 to -5.33.

Going from `O=C1[O][Pt]2([NH]C3CCCCC3[NH]2)[O]C1=O` (stereo unspecified) [Oxaliplatin] to `Cn1cc(-c2cnn3c(N)c(Br)c([C@H]4CCCNC4)nc23)cn1`, the “AC50 for growth inhibition (log10 M)” value falls from -4.73 to -5.88.

Going from `CC1=CC2=C(O1)C(=C3OC(=O)\C=C(C)/C3=C2)C` [Trioxsalen] to `Nc1cc(C(F)(F)F)c(-c2cc(N3CCOCC3)nc(N3CCOCC3)n2)cn1` [BKM-120], the “AC50 for growth inhibition (log10 M)” value falls from -5.38 to -6.78.

Going from `NC(=O)NO` [Hydroxyurea] to `CN1CCN(c2cc(C(=O)Nc3ccc4c(c3)-c3c(c(C(N)=O)nn3-c3ccc(F)cc3)CC4)c(Cl)cn2)CC1` [PHA-408], the “AC50 for growth inhibition (log10 M)” value rises from -6.08 to -5.88.

`CC12CC3CC(C)(C1)CC(N)(C3)C2` [Memantine hydrochloride] was tested, and the “AC50 for growth inhibition (log10 M)” value was -4.73.
